Assay results reported in US20240398805A1, “QUINAZOLINE DERIVED COMPOUNDS AS EGFR INHIBITORS AND THEIR USES THEREOF” (ACCUTAR BIOTECHNOLOGY INC., priority 2021, published 2024).

Columns and labels:
Assay type in all cases: cell-based
[1] = test system: A431 cells; experiment: Cell growth inhibition (CellTiter-Glo, 3 days) in A431; conditions: Homo sapiens, A-431, 72 h, 3 days after administration
Procedure, shortened: (§1)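 HCC827 cells in RPMI/10% FBS and A431 cells in DMEM/10% FBS were seeded at 5000 cells/well and left overnight. Compound was then added over a concentration range for 3 days of incubation, and viability was read by CellTiter-Glo luminescence.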

[2] = test system: HCC827-SVD cells (human EGFR exon 20 insertion mutant D770_N771 insSVD); experiment: Cell growth inhibition (CellTiter-Glo, 3 days) in HCC827-SVD; conditions: 72 h, 3 days after administration
Procedure, shortened: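 HCC827 cells carrying lentiviral codon-optimized EGFR D770_N771 insSVD, with endogenous EGFR knocked out by CRISPR (single clone), seeded at 5000 cells/well in RPMI with 10% FBS. Viability read by CellTiter-Glo luminescence.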

[3] = test system: HCC827-ASV cells (human EGFR exon 20 insertion mutant A769_D770insASV); experiment: Cell growth inhibition (CellTiter-Glo, 3 days) in HCC827-ASV; conditions: 72 h, 3 days after administration
Procedure, shortened: (§2)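 HCC827 cells lentivirally transduced with codon-optimized ASV or YVMA insertion mutants were seeded at 5000 cells/well in RPMI with 10% FBS and incubated overnight. Compound was added at various concentrations from a 10× stock in medium, with 3 days' incubation. Viability read by CellTiter-Glo luminescence.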

[4] = test system: HCC827-YVMA cells (human ERBB2 exon20 insertion mutant A775_G776ins YVMA); experiment: Cell growth inhibition (CellTiter-Glo, 3 days) in HCC827-YVMA; conditions: 72 h, 3 days after administration
Procedure, shortened: as §2

[5] = test system: HCC827 cells; experiment: Cell growth inhibition (CellTiter-Glo, 3 days) in HCC827; conditions: Homo sapiens, 72 h, 3 days after administration
Procedure, shortened: as §1

Row | Compound | GI50 [1] [nM] | GI50 [2] [nM] | GI50 [3] [nM] | GI50 [4] [nM] | GI50 [5] [nM]
1 | C=CC(=O)N1CCC(Nc2cc3c(Nc4ccc(Oc5ccnc(-c6cccc(C)c6)c5)cc4F)ncnc3cc2OC)CC1 [Example 234, 1-(4-((4-((2-fluoro-4-((2-(m-tolyl)pyridin-4-yl)oxy)phenyl)amino)-7-methoxyquinazolin-6-yl)amino)piperidin-1-yl)prop-2-en-1-one] | 300 to 600 | 30 to 60 | < 30 | < 30 | 60 to 100
2 | C=CC(=O)N1CCC(Nc2cc3c(Nc4ccc(Oc5ccnc(NC6CCCC6)c5)cc4F)ncnc3cc2OC)CC1 [Example 246, 1-(4-((4-((4-((2-(cyclopentylamino)pyridin-4-yl)oxy)-2-fluorophenyl)amino)-7-methoxyquinazolin-6-yl)amino)piperidin-1-yl)prop-2-en-1-one] | 100 to 300 | < 30 | < 30 | < 30 | 30 to 60
3 | C=CC(=O)N1CCC(Nc2cc3c(Nc4ccc(Oc5ccnc(-c6ccn[nH]6)c5)cc4F)ncnc3cc2OC)CC1 [Example 45, 1-(4-((4-((4-((2-(1H-pyrazol-5-yl)pyridin-4-yl)oxy)-2-fluorophenyl)amino)-7-methoxyquinazolin-6-yl)amino)piperidin-1-yl)prop-2-en-1-one] | 300 to 600 | 60 to 100 | < 30 | 60 to 100 | 100 to 300
4 | C=CC(=O)N1CCC(Nc2cc3c(Nc4ccc(Oc5ccn(-c6cnc(OC)nc6)n5)cc4F)ncnc3cc2OC)CC1 [Compound 1, 1-(4-((4-((2-fluoro-4-((1-(2-methoxypyrimidin-5-yl)-1H-pyrazol-3-yl)oxy)phenyl)amino)-7-methoxyquinazolin-6-yl)amino)piperidin-1-yl)prop-2-en-1-one] | 300 to 600 | 60 to 100 | 30 to 60 | 60 to 100 | 300 to 600
5 | C=CC(=O)N1CCC(Nc2cc3c(Nc4ccc(Oc5ccn(-c6ccc(C)nc6F)n5)cc4F)ncnc3cc2OC)CC1 [Example 89, 1-(4-((4-((2-fluoro-4-((1-(2-fluoro-6-methylpyridin-3-yl)-1H-pyrazol-3-yl)oxy)phenyl)amino)-7-methoxyquinazolin-6-yl)amino)piperidin-1-yl)prop-2-en-1-one] | 600 to 1000 | < 30 | < 30 | < 30 | 30 to 60
6 | C=CC(=O)N1CCC(Nc2cc3c(Nc4ccc(Oc5ccnc(NC6COC6)c5)cc4F)ncnc3cc2OC)CC1 [Example 183, 1-(4-((4-((2-fluoro-4-((2-(oxetan-3-ylamino)pyridin-4-yl)oxy)phenyl)amino)-7-methoxyquinazolin-6-yl)amino)piperidin-1-yl)prop-2-en-1-one] | ≥ 1000 | ≥ 1000 | ≥ 1000 | ≥ 1000 | ≥ 1000
7 | C=CC(=O)N1CCC(Nc2cc3c(Nc4ccc(Oc5ccn(-c6ccc(C)nn6)n5)cc4F)ncnc3cc2OC)CC1 [Example 29, 1-(4-((4-((2-fluoro-4-((1-(6-methylpyridazin-3-yl)-1H-pyrazol-3-yl)oxy)phenyl)amino)-7-methoxyquinazolin-6-yl)amino)piperidin-1-yl)prop-2-en-1-one] | ≥ 1000 | < 30 | < 30 | < 30 | < 30
8 | C=CC(=O)N1CCC(Nc2cc3c(Nc4ccc(OCc5ccccn5)c(Cl)c4)ncnc3cc2OCCN2CCOCC2)CC1 [Example 95, 1-(4-((4-((3-chloro-4-(pyridin-2-ylmethoxy)phenyl)amino)-7-(2-morpholinoethoxy)quinazolin-6-yl)amino)piperidin-1-yl)prop-2-en-1-one] | 100 to 300 | < 30 | < 30 | < 30 | < 30
9 | C=CC(=O)N1CCC(Nc2cc3c(Nc4ccc(Oc5ccnc(N6C[C@@H]7C[C@H]6CO7)c5)cc4F)ncnc3cc2OC)CC1 [Example 131, 1-(4-((4-((4-((2-((1S,4S)-2-oxa-5-azabicyclo[2.2.1]heptan-5-yl)pyridin-4-yl)oxy)-2-fluorophenyl)amino)-7-methoxyquinazolin-6-yl)amino)piperidin-1-yl)prop-2-en-1-one] | ≥ 1000 | 60 to 100 | 30 to 60 | 60 to 100 | 600 to 1000
10 | C=CC(=O)N1CCC(Nc2cc3c(Nc4ccc(Oc5ccnc(N6CCC(C)(OC)CC6)c5)cc4F)ncnc3cc2OC)CC1 [Example 129, 1-(4-((4-((2-fluoro-4-((2-(4-methoxy-4-methylpiperidin-1-yl)pyridin-4-yl)oxy)phenyl)amino)-7-methoxyquinazolin-6-yl)amino)piperidin-1-yl)prop-2-en-1-one] | ≥ 1000 | 60 to 100 | 30 to 60 | 60 to 100 | 300 to 600
11 | C=CC(=O)N1CCC(Nc2cc3c(Nc4ccc(Oc5ccnc(-c6nc(C)sc6C)c5)cc4F)ncnc3cc2OC)CC1 [Example 177, 1-(4-((4-((4-((2-(2,5-dimethylthiazol-4-yl)pyridin-4-yl)oxy)-2-fluorophenyl)amino)-7-methoxyquinazolin-6-yl)amino)piperidin-1-yl)prop-2-en-1-one] | 300 to 600 | < 30 | < 30 | < 30 | 100 to 300
12 | C=CC(=O)N1CCC(Nc2cc3c(Nc4ccc(Oc5ccnc(N6CC(C)(C)C6)c5)cc4F)ncnc3cc2OC)CC1 [Example 202, 1-(4-((4-((4-((2-(3,3-dimethylazetidin-1-yl)pyridin-4-yl)oxy)-2-fluorophenyl)amino)-7-methoxyquinazolin-6-yl)amino)piperidin-1-yl)prop-2-en-1-one] | 100 to 300 | < 30 | < 30 | < 30 | < 30
13 | C=CC(=O)N1CCC(Nc2cc3c(Nc4ccc(Oc5ccnc(N6CC(C(F)(F)F)C6)c5)cc4F)ncnc3cc2OC)CC1 [Example 161, 1-(4-((4-((2-fluoro-4-((2-(3-(trifluoromethyl)azetidin-1-yl)pyridin-4-yl)oxy)phenyl)amino)-7-methoxyquinazolin-6-yl)amino)piperidin-1-yl)prop-2-en-1-one] | 300 to 600 | < 30 | < 30 | < 30 | 100 to 300
14 | C=CC(=O)N1CCC(Nc2cc3c(Nc4ccc(Oc5ccnn5-c5cnc(OC)c(F)c5)cc4F)ncnc3cc2OC)CC1 [Example 109, 1-(4-((4-((2-fluoro-4-((1-(5-fluoro-6-methoxypyridin-3-yl)-1H-pyrazol-5-yl)oxy)phenyl)amino)-7-methoxyquinazolin-6-yl)amino)piperidin-1-yl)prop-2-en-1-one] | ≥ 1000 | ≥ 1000 | ≥ 1000 | ≥ 1000 | < 30
15 | C=CC(=O)N1CCC(Nc2cc3c(Nc4ccc(Oc5ccnc(N6CCN[C@H](C)C6)c5)cc4F)ncnc3cc2OC)CC1 [Example 224, (R)-1-(4-((4-((2-fluoro-4-((2-(3-methylpiperazin-1-yl)pyridin-4-yl)oxy)phenyl)amino)-7-methoxyquinazolin-6-yl)amino)piperidin-1-yl)prop-2-en-1-one] | ≥ 1000 | 300 to 600 | 600 to 1000 | 600 to 1000 | ≥ 1000
